# Values quoted from earlier work, collected in patent US20120101168A1, “DEUTERIUM ENRICHED RASAGILINE” (priority 2010, published 2012).
# Tests used:
# [1] = system: MAO; conditions: more potent, but not in-vitro
# [2] = target: CYP1A2 (Homo sapiens, UniProt P05177); conditions: forms several primary metabolites
# Chain of CYP1A2 (P05177 whole entry): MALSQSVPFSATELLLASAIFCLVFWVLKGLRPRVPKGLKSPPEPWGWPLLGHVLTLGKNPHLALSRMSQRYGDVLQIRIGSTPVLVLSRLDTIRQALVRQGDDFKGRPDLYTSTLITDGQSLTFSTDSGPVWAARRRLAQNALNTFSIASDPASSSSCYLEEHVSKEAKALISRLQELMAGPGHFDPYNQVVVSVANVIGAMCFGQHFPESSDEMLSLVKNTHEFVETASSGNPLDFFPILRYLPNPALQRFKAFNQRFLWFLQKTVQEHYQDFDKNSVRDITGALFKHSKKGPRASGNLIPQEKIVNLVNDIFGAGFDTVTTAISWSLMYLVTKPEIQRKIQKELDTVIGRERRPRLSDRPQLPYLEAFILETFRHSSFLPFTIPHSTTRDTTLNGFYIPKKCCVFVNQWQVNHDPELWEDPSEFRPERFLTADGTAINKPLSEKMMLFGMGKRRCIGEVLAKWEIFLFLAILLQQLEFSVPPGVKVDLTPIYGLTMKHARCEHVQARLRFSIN
metabolism by CYP1A2 [2],Structure (SMILES),MAO inhibition potency compared with non-deuterated phenelzine [1]
,[2H]C([2H])(NN)C([2H])([2H])c1ccccc1 [deuterated phenelzine],more potent MAO inhibitor
slowly metabolized,"C#CCN[C@@H]1CCc2ccccc21 [Rasagiline, R(+)-N-propargyl-1-aminoindan]",
